The assay relates to primary rat mixed cortical cells. Nature of the assay: In vitro myelination assay (MBP positive myelin strands, fold myelin pixels above background). The class given is cell-based. The following applies: for fold induction at 1 µM / fold induction at 10 µM: Rattus norvegicus. The procedure, abridged: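 Fourteen-day treatment of primary P1 rat mixed cortical cultures, re-dosed at days 6 and 10, at 1.0 μM and 10.0 μM. MBP immunofluorescence was imaged at 10× and myelin strands quantified by software, normalised to untreated wells as fold above background.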

The mark [1] stands for this setting: 1.0 μM compound, relative to baseline of no added compound, read-out: Fold myelin pixels above background.
Where [2] appears, read: 10.0 μM compound, relative to baseline of no added compound, read-out: Fold myelin pixels above background.
[3] abbreviates: 1.0 μM compound, relative to baseline of no added compound, read-out: Fold myelin pixels above background, 1.0 μM.
Where [4] appears, read: 10.0 μM compound, relative to baseline of no added compound, read-out: Fold myelin pixels above background, 10.0 μM.
Setting [5] is: 1.0 μM compound, read-out: Fold myelin pixels above background relative to baseline of no added compound.
[6] abbreviates: 10.0 μM compound, read-out: Fold myelin pixels above background relative to baseline of no added compound.

From patent US10766869B2, “Triazoles for the treatment of demyelinating dieases” (Vertex Pharmaceuticals Incorporated, priority 2015, dated 2020) come the findings set out here.

Molecules are shown by their SMILES. Where two headings read alike, the source gives them in different places.

As to `COc1c(C)cc(N2CCN(C3COC3)CC2)cc1Nc1ncn(-c2cnccn2)n1` [Compound 471, N-[2-methoxy-3-methyl-5-[4-(oxetan-3-yl)piperazin-1-yl]phenyl]-1-pyrazin-2-yl-1,2,4-triazol-3-amine], the fold induction at 1 µM under setting [1] lay within 1 to 10. Moreover, the fold induction at 10 µM under setting [2] was not above 1.
As to `Cc1cc(Nc2ncn(-c3cc(F)cc(F)c3)n2)cc(N2CCOC(C3CCCO3)C2)c1` (stereo not drawn) [Compound 972, 1-(3,5-difluorophenyl)-N-[3-methyl-5-(2-tetrahydrofuran-2-ylmorpholin-4-yl)phenyl]-1,2,4-triazol-3-amine], the “Fold myelin pixels above background relative to baseline of no added compound” value is, setting by setting: (1.0 μM compound) “− (≤1)”; (10.0 μM compound) “+ (>1 to 10x)”.
As for `CC(=O)N1CCCN(c2cc(C)cc(Nc3ncn(-c4ccccc4)n3)c2)CC1` [Compound 280, 1-[4-[3-methyl-5-[(1-phenyl-1,2,4-triazol-3-yl)amino]phenyl]-1,4-diazepan-1-yl]ethanone], the fold induction at 1 µM under setting [3] was in the range of 1000 to 10000. Under setting [4], the fold induction at 10 µM was 10 to 100.
On to `Cc1cc(Nc2ncn(-c3cnccn3)n2)cc([C@@]2(C)CNC(=O)O2)c1` (single isomer, unassigned) [Compound 603], for which the fold induction at 1 µM under setting [1] is 10 to 100. For the same compound, the fold induction at 10 µM under setting [2] lay in the range of 10 to 100.
Consider `Cc1cc(Nc2ncn(-c3ccccc3)n2)cc(N2CCOCC2)c1` [Compound 45, N-(3-methyl-5-morpholino-phenyl)-1-phenyl-1,2,4-triazol-3-amine], for which, under setting [3], the fold induction at 1 µM was 1000 to 10000. For the same compound, the fold induction at 10 µM under setting [4] fell in the range of 100 to 1000.
Take `FC(F)(F)c1cc(Nc2ncn(-c3cnccn3)n2)cc(N2CCC(C3COC3)CC2)c1` [Compound 507, N-[3-[4-(oxetan-3-yl)-1-piperidyl]-5-(trifluoromethyl)phenyl]-1-pyrazin-2-yl-1,2,4-triazol-3-amine]: the fold induction at 1 µM under setting [1] is 10 to 100. Also, under setting [2], the fold induction at 10 µM lay in the range of 100 to 1000.
Turning to `Cc1cc(N2CCN(C3COC3)CC2)cc(Nc2ncn(-c3cc(F)cc(F)c3)n2)c1C` [Compound 425, 1-(3,5-difluorophenyl)-N-[2,3-dimethyl-5-[4-(oxetan-3-yl)piperazin-1-yl]phenyl]-1,2,4-triazol-3-amine], under setting [1], the fold induction at 1 µM was 1 to 10. In addition, the fold induction at 10 µM under setting [2] was in the range of 100 to 1000.
Turning to `Cc1cc(Nc2ncn(-c3cc(F)cc(F)c3)n2)c(C)c(N2CC(N3CCOCC3)C2)c1` [Compound 820, 1-(3,5-difluorophenyl)-N-[2,5-dimethyl-3-(3-morpholinoazetidin-1-yl)phenyl]-1,2,4-triazol-3-amine], the fold induction at 1 µM under setting [5] lay in the range of 1 to 10. In addition, the fold induction at 10 µM under setting [6] is 10 to 100.
For the compound `Cc1cc(Nc2ncn(-c3cc(F)cc(F)c3)n2)cc(N2CCN(C(C)(C)C(=O)O)CC2)c1` [Compound 509, 2-[4-[3-[[1-(3,5-difluorophenyl)-1,2,4-triazol-3-yl]amino]-5-methyl-phenyl]piperazin-1-yl]-2-methyl-propanoic acid], the fold induction at 1 µM under setting [1] lay within 100 to 1000. In addition, the fold induction at 10 µM under setting [2] is 100 to 1000.
`Cc1cc(Nc2ncn(-c3cccc(C(F)(F)F)c3)n2)cc(OCCn2cccn2)c1` [Compound 644, N-[3-methyl-5-(2-pyrazol-1-ylethoxy)phenyl]-1-[3-(trifluoromethyl)phenyl]-1,2,4-triazol-3-amine]: the fold induction at 1 µM under setting [1] fell in the range of 1 to 10. For the same compound, the fold induction at 10 µM under setting [2] lay in the range of 10 to 100.
Take `Cc1cc(Nc2ncn(-c3ccc(C)c(F)c3)n2)cc(N2CCN(C3COC3)CC2)c1` [Compound 836, 1-(3-fluoro-4-methyl-phenyl)-N-[3-methyl-5-[4-(oxetan-3-yl)piperazin-1-yl]phenyl]-1,2,4-triazol-3-amine]: the fold induction at 1 µM under setting [5] lay within 1 to 10. For the same compound, under setting [6], the fold induction at 10 µM lay in the range of 1 to 10.
`FC(F)c1cc(Nc2ncn(-c3ccccc3)n2)nc(N2CCN(C3COC3)CC2)c1` [Compound 526, 4-(difluoromethyl)-6-[4-(oxetan-3-yl)piperazin-1-yl]-N-(1-phenyl-1,2,4-triazol-3-yl)pyridin-2-amine]: the fold induction at 1 µM under setting [1] is 100 to 1000. For the same compound, under setting [2], the fold induction at 10 µM was in the range of 10 to 100.
Take `COc1cc(Nc2ncn(-c3cccc(C(F)F)c3)n2)nc(N2CCN(C3COC3)CC2)c1` [Compound 639, N-[1-[3-(difluoromethyl)phenyl]-1,2,4-triazol-3-yl]-4-methoxy-6-[4-(oxetan-3-yl)piperazin-1-yl]pyridin-2-amine]: the fold induction at 1 µM under setting [1] was in the range of 1 to 10. Under setting [2], the fold induction at 10 µM fell in the range of 1 to 10.
As to `FC(F)(F)c1cc(Nc2ncn(-c3ccccc3)n2)nc(N2CCN(C3COC3)CC2)c1` [Compound 547, 6-[4-(oxetan-3-yl)piperazin-1-yl]-N-(1-phenyl-1,2,4-triazol-3-yl)-4-(trifluoromethyl)pyridin-2-amine], the fold induction at 1 µM under setting [1] is 100 to 1000. For the same compound, the fold induction at 10 µM under setting [2] is 10 to 100.
As for `Cc1cc(Nc2ncn(-c3cccc(C(F)(F)F)c3)n2)nc(N2CCOCC2)c1` [Compound 837, 4-methyl-6-morpholino-N-[1-[3-(trifluoromethyl)phenyl]-1,2,4-triazol-3-yl]pyridin-2-amine], the fold induction at 1 µM under setting [5] fell in the range of 1 to 10. Under setting [6], the fold induction at 10 µM fell in the range of 10 to 100.
For `Cc1cc(Nc2ncn(-c3cc(F)cc(F)c3)n2)cc(N2CC(N3C[C@@H](C)O[C@@H](C)C3)C2)c1` [Compound 618, 1-(3,5-difluorophenyl)-N-[3-[3-[(2R,6S)-2,6-dimethylmorpholin-4-yl]azetidin-1-yl]-5-methyl-phenyl]-1,2,4-triazol-3-amine], under setting [1], the fold induction at 1 µM lay within 10 to 100. For the same compound, the fold induction at 10 µM under setting [2] was in the range of 10 to 100.
As for `COC1CCCN(c2cc(C)cc(Nc3ncn(-c4cc(F)cc(F)c4)n3)c2)C1` (stereo not drawn) [Compound 293, 1-(3,5-difluorophenyl)-N-[3-(3-methoxy-1-piperidyl)-5-methyl-phenyl]-1,2,4-triazol-3-amine], the fold induction at 1 µM under setting [3] fell in the range of 10 to 100. In addition, the fold induction at 10 µM under setting [4] lay in the range of 10 to 100.
Consider `Cc1cc(Nc2ncn(-c3ccc(F)c(F)c3)n2)cc(N2CCN(C)CC2)c1` [Compound 317, 1-(3,4-difluorophenyl)-N-[3-methyl-5-(4-methylpiperazin-1-yl)phenyl]-1,2,4-triazol-3-amine], for which the fold induction at 1 µM under setting [3] was 100 to 1000. The fold induction at 10 µM under setting [4] was 10 to 100.
The corresponding values for `Cc1cc(Nc2ncn(-c3cc(F)cc(Cl)c3)n2)cc(N2CCN(C3COC3)CC2)c1` [Compound 32, 1-(3-chloro-5-fluoro-phenyl)-N-[3-methyl-5-[4-(oxetan-3-yl)piperazin-1-yl]phenyl]-1,2,4-triazol-3-amine] are 1000 to 10000 and 100 to 1000.
Consider `Cc1cc(Nc2ncn(-c3cc(F)cc(F)c3)n2)cc(N2CCN(C)C(C)(C)C2)c1` [Compound 771, 1-(3,5-difluorophenyl)-N-[3-methyl-5-(3,3,4-trimethylpiperazin-1-yl)phenyl]-1,2,4-triazol-3-amine], for which the fold induction at 1 µM under setting [1] was in the range of 10 to 100. Moreover, the fold induction at 10 µM under setting [2] is not above 1.
For `Fc1cc(F)cc(-n2cnc(Nc3cc(N4CC(N5CCOCC5)C4)cc(Cl)n3)n2)c1` [Compound 660, 6-chloro-N-[1-(3,5-difluorophenyl)-1,2,4-triazol-3-yl]-4-(3-morpholinoazetidin-1-yl)pyridin-2-amine], the fold induction at 1 µM under setting [1] is not above 1. For the same compound, the fold induction at 10 µM under setting [2] is not above 1.
In the case of `Cc1cc(Nc2ncn(-c3cc(F)cc(F)c3)n2)cc(N2CC(C(C)(C)O)C2)c1` [Compound 519, 2-[1-[3-[[1-(3,5-difluorophenyl)-1,2,4-triazol-3-yl]amino]-5-methyl-phenyl]azetidin-3-yl]propan-2-ol], the fold induction at 1 µM under setting [1] was in the range of 100 to 1000. For the same compound, the fold induction at 10 µM under setting [2] is not above 1.
Take `CN(C)C1CCN(c2cc(F)cc(Nc3ncn(-c4ccc(F)cc4F)n3)c2)C1` (stereo not drawn) [Compound 347, 1-(2,4-difluorophenyl)-N-[3-[3-(dimethylamino)pyrrolidin-1-yl]-5-fluoro-phenyl]-1,2,4-triazol-3-amine]: under setting [3], the fold induction at 1 µM was not above 1. For the same compound, the fold induction at 10 µM under setting [4] was not above 1.
Turning to `Cc1cc(NC2CCOC2)cc(Nc2ncn(-c3cc(F)cc(F)c3)n2)c1F` (stereo not drawn) [Compound 953, N3-[1-(3,5-difluorophenyl)-1,2,4-triazol-3-yl]-4-fluoro-5-methyl-N1-tetrahydrofuran-3-yl-benzene-1,3-diamine], under setting [5], the fold induction at 1 µM lay in the range of 1 to 10. Moreover, the fold induction at 10 µM under setting [6] was in the range of 1 to 10.
Regarding `Cc1cc(Nc2ncn(-c3cncc(C)n3)n2)cc(N2CCN(C3CC3)CC2)c1` [Compound 420, N-[3-(4-cyclopropylpiperazin-1-yl)-5-methyl-phenyl]-1-(6-methylpyrazin-2-yl)-1,2,4-triazol-3-amine], under setting [1], the fold induction at 1 µM was 1 to 10. Further, under setting [2], the fold induction at 10 µM was in the range of 1 to 10.
As for `CC(=O)N1CCCC(c2cc(C)cc(Nc3ncn(-c4ccncn4)n3)c2)C1` (stereo not drawn) [Compound 449, 1-[3-[3-methyl-5-[(1-pyrimidin-4-yl-1,2,4-triazol-3-yl)amino]phenyl]-1-piperidyl]ethanone], under setting [1], the fold induction at 1 µM fell in the range of 100 to 1000. Moreover, the fold induction at 10 µM under setting [2] was not above 1.
The corresponding values for `Cc1cc(Nc2ncn(-c3cccc(C(F)F)c3)n2)cc(N2CCC(N3CCOCC3)CC2)c1` [Compound 725, 1-[3-(difluoromethyl)phenyl]-N-[3-methyl-5-(4-morpholino-1-piperidyl)phenyl]-1,2,4-triazol-3-amine] are 10 to 100 and 10 to 100.
